# Laboratory results: patent US12121522B2, “Methods of treating cancer with an mTOR inhibitor” (Revolution Medicines, Inc., priority 2022, dated 2024)
# Experiments:
# mucositis/stomatitis = experiment: Mouthwash prophylaxis of mucositis in patients on RMC-5552; format: in vivo, human; conditions: RMC-5552 8 to 12 mg IV weekly; without TM N=20, with TM N=7
# Protocol: Table 9 presents data from all patients (N=27) treated either with dexamethasone mouthwash alone, or dexamethasone mouthwash plus tacrolimus mouthwash at 8 mg (N=16), 10 mg (N=8), and 12 mg (N=3) IV QW. Median time on treatment (min, max) was 2.6 months for patients treated at 8 mg IV QW with dexamethasone mouthwash alone (N=13), 1.2 months for patients treated at 8 mg IV QW with dexamethasone mouthwash plus tacrolimus mouthwash (N=3), 0.9 months for patients treated at 10 mg IV QW with dexamethasone mouthwash alone (N=5), 2.0 months for patients treated at 10 mg IV QW with dexamethasone mouthwash plus tacrolimus mouthwash (N=3), 9.1 months for patients treated at 12 mg IV QW with dexamethasone mouthwash alone (N=2), and 0.4 months for patients treated at 12 mg IV QW with dexamethasone mouthwash plus tacrolimus mouthwash (N=1). […] Among all dose levels, the frequency of Grade 3 or worse events, frequency and severity of mucositis, and frequency of AEs leading to dose modification were lower in those patients treated with tacrolimus mouthwash.
# Subjects received dexamethasone alone or dexamethasone plus tacrolimus mouthwash(es). […] At baseline (C1D1 predose), subjects rinse with the mouthwash(es) once at least 15 minutes prior to the first dose of study intervention. […]
# [1] = system: murine models of mTORC1-activated cancers; conditions: mouse, in vivo
# Protocol: The antitumor activity of RMC-5552 as a single agent against tumors predicted to be dependent on the mTOR pathway and/or bearing specific PI3K/mTOR pathway-activating mutations (i.e., PIK3CA^mut, phosphatase and tensin homolog [PTEN^LOF], or co-mutation of both and tuberous sclerosis complex [TSC^LOF]) was evaluated in selected CDX and/or PDX models
smiles,measurement,setting,value
CO[C@H]1C[C@@H]2CC[C@@H](C)[C@@](O)(O2)C(=O)C(=O)N2CCCC[C@H]2C(=O)O[C@H]([C@H](C)C[C@@H]2CC[C@@H](OC(=O)NCCOCCOCCOCCOCCOCCOCCOCCOCCC(=O)N3CCc4cc(Cn5nc(-c6ccc7oc(N)nc7c6)c6c(N)ncnc65)ccc4C3)[C@H](OC)C2)C[C@@H](O)[C@H](C)/C=C(\C)[C@@H](O)[C@@H](OC)C(=O)[C@H](C)C[C@H](C)/C=C/C=C/C=C/1C [RMC-5552],rate of grade 3 mucositis/stomatitis,mucositis/stomatitis,15%
same,rate of mucositis/stomatitis,mucositis/stomatitis,75%
same,tolerability of doses and regimens,[1],generally well-tolerated
